# According to ChEMBL document CHEMBL1201862, “PubChem BioAssay data set” (2004):
#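 The compound was tested at five concentrations on cells cultured in 96-well plates, with a 48-hour exposure period. GI50: concentration for 50% inhibition of growth.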 Activity calls are given as the source filed them. No stated cut-off is given here; in the data, active = GI50 up to about 1.1 µM and inactive = higher.
# Tests used:
# Assay in all cases: growth of human tumour cells (NCI), 48 h
# [1] = test system: KM-20L2
# [2] = test system: HCT-15
# [3] = test system: K562
# [4] = test system: HT-29
# [5] = test system: UACC-62
# [6] = test system: SNB-78
# [7] = test system: CCRF-CEM
# [8] = test system: A549
# [9] = test system: RXF 393
# [10] = test system: SK-MEL-28
# [11] = test system: UACC-257
# [12] = test system: NCI-H23
# [13] = test system: HOP-62
# [14] = test system: SF-268
# [15] = test system: 786-0
# [16] = test system: RPMI-8226
# [17] = test system: IGROV-1
# [18] = test system: MOLT-4
# [19] = test system: HL-60
# [20] = test system: OVCAR-8
# [21] = test system: HOP-18
# [22] = test system: SNB-19
# [23] = test system: OVCAR-5
# [24] = test system: M19-MEL
# [25] = test system: U-251
# [26] = test system: A498
# [27] = test system: ACHN
# [28] = test system: COLO 205
# [29] = test system: SF-295
# [30] = test system: DMS-114
# [31] = test system: SNB-75
# [32] = test system: HOP-92
# [33] = test system: SK-MEL-5
# [34] = test system: DLD-1
# [35] = test system: OVCAR-4
# [36] = test system: SW-620
# [37] = test system: NCI-H522
# [38] = test system: NCI-H460
# [39] = test system: SN12C
# [40] = test system: HCC 2998
# [41] = test system: SF-539
# [42] = test system: SK-MEL-2
# [43] = test system: M14
# [44] = test system: KM12
# [45] = test system: EKVX
# [46] = test system: UO-31
# [47] = test system: Malme-3M
# [48] = test system: LXFL 529
# [49] = test system: HCT-116
smiles,measurement,setting,value
CC1=N/C(=C\c2c(O)ccc3ccccc23)C(=O)O1,GI50,[1],> 100 µM (inactive)
same,GI50,[2],> 100 µM
same,GI50,[3],> 100 µM (inactive)
same,GI50,[4],> 100 µM (inactive)
same,GI50,[5],> 100 µM (inactive)
same,GI50,[6],> 100 µM (inactive)
same,GI50,[7],> 100 µM (inactive)
same,GI50,[8],> 100 µM (inactive)
same,GI50,[9],> 100 µM (inactive)
same,GI50,[10],> 100 µM (inactive)
same,GI50,[11],> 100 µM (inactive)
same,GI50,[12],> 100 µM (inactive)
same,GI50,[13],> 100 µM (inactive)
same,GI50,[14],> 100 µM (inactive)
same,GI50,[15],> 100 µM (inactive)
same,GI50,[16],> 100 µM (inactive)
same,GI50,[17],> 100 µM (inactive)
same,GI50,[18],> 100 µM (inactive)
same,GI50,[19],> 100 µM (inactive)
same,GI50,[20],> 100 µM (inactive)
same,GI50,[21],> 100 µM (inactive)
same,GI50,[22],> 100 µM (inactive)
same,GI50,[23],> 100 µM (inactive)
same,GI50,[24],> 100 µM (inactive)
same,GI50,[25],> 100 µM (inactive)
same,GI50,[26],> 100 µM (inactive)
same,GI50,[27],> 100 µM (inactive)
same,GI50,[28],> 100 µM (inactive)
same,GI50,[29],> 100 µM (inactive)
same,GI50,[30],> 100 µM (inactive)
same,GI50,[31],849 nM (active)
same,GI50,[32],> 100 µM (inactive)
same,GI50,[33],> 100 µM (inactive)
same,GI50,[34],> 100 µM (inactive)
same,GI50,[35],> 100 µM (inactive)
same,GI50,[36],> 100 µM (inactive)
same,GI50,[37],> 100 µM (inactive)
same,GI50,[38],> 100 µM (inactive)
same,GI50,[39],> 100 µM (inactive)
same,GI50,[40],> 100 µM (inactive)
same,GI50,[41],> 100 µM (inactive)
same,GI50,[42],> 100 µM (inactive)
same,GI50,[43],> 100 µM (inactive)
same,GI50,[44],> 100 µM (inactive)
same,GI50,[45],> 100 µM (inactive)
same,GI50,[46],> 100 µM (inactive)
same,GI50,[47],> 100 µM (inactive)
same,GI50,[48],> 100 µM (inactive)
same,GI50,[49],> 100 µM (inactive)
